Counter-ions that a name gives are not always drawn.
Key:
Type in all cases: physicochemical
Water-solubility test = details: 25° C. (room temperature), expressed as acid
Description: The solubility of Example 1 in water at room temperature was determined together with the solubility of the corresponding free acids.

[1] = Crystallisation tests of salts with pharmaceutically acceptable bases; details: for Solid form obtained: salt crystallisation tests
Text: Crystallisation tests of salts of 5-cyclopropyl-2-{[2-(2,6-difluorophenyl)pyrimidin-5-yl]amino}benzoic acid with a broad range of pharmaceutically acceptable bases (comprising among others ammonia, L-arginine, choline, lysine, magnesium methoxide, meglumine, potassium methoxide and sodium hydroxide) in a range of different pharmaceutically acceptable solvents (including among others acetone, acetonitrile, ethyl acetate, chloroform, N,N-dimethylformamide, ethanol, isopropanol, nitromethane, dimethyl carbonate, methanol, methyl tert-butyl ether, tetrahydrofurane, diisopropyl ether, cyclohexane, butanol, water, 3-pentanone, toluene, chlorobenzene and isobutyl acetate) have been undertaken.
The salts from L-arginine, choline, magnesium methoxide and potassium methoxide were crystalline but hygroscopic. Additionally, some of said salts have different polymorphic phases.

[2] = Dynamic Vapour Sorption (DVS) profile; details: 25° C.
Description: Dynamic Vapour Sorption (DVS) profiles were obtained using an Igasorp Hiden Isochema instrument (serial number IGA-SA-066). After an initial stabilization period, at least two isotherms (at 25° C.) were obtained for each sample: a moisture sorption from 0 to 95% relative humidity and moisture desorption from 95% relative humidity to dryness. Both isotherms were performed in 10% humidity steps, with a minimum time of 10 minutes and a maximum time of 30 minutes for each step.
FIG. 2 illustrates the DVS pattern of the sodium salt of 5-cyclopropyl-2-{[2-(2,6-difluorophenyl)pyrimidin-5-yl]amino}benzoic acid. Mass increase was measured at 80% (0.7% increase) and 90% (4.2% increase) relative humidity (RH).

[3] = Differential scanning calorimetry (DSC) thermogram; details: heated 30 to 350° C. at 10° C./min
Description: The differential scanning calorimetry (DSC) thermograms analyses were obtained using a DSC-821 Mettler-Toledo instrument, serial number 5117423874. Samples were weighed into an aluminium pan, an aluminium lid placed on top of the sample and compressed with a brass rod. Samples were equilibrated at 30° C. and heated at 10° C./min to 350° C. The instrument was calibrated using indium and zinc standards.
FIG. 1 illustrates the DSC thermogram of the sodium salt of 5-cyclopropyl-2-{[2-(2,6-difluorophenyl)pyrimidin-5-yl]amino}benzoic acid.

O=C(O)c1cc(C2CC2)ccc1Nc1cnc(-c2c(F)cccc2F)nc1 [Ex. 1, 5-cyclopropyl-2-{[2-(2,6-difluorophenyl)pyrimidin-5-yl]amino}benzoic acid, sodium salt]
Water Solubility @ 25° C. (mg/mL as acid) (Water-solubility test; sodium salt): 1.87 mg/mL
Hygroscopicity / deliquescence of the salt [1]: neither hygroscopic nor deliquescent
Mass increase (DVS) ([2]; 80% relative humidity): 0.7%
Mass increase (DVS) ([2]; 90% relative humidity): 4.2%
Hygroscopicity according to DVS ([2]; sorption 0 to 95% RH): not hygroscopic
Hysteresis in DVS sorption/desorption ([2]; sorption/desorption isotherms): no hysteresis
Thermal stability (decomposition) by DSC [3]: does not suffer any decomposition at low-medium temperatures

O=C(O)c1cc(C2CC2)ccc1Nc1cnc(-c2c(F)cccc2F)nc1 [Example C1, 5-cyclopropyl-2-{[2-(2,6-difluorophenyl)pyrimidin-5-yl]amino}benzoic acid]
Water Solubility @ 25° C. (mg/mL as acid) (Water-solubility test): 0.03 mg/mL

N=C(N)NCCCC(N)C(=O)O.O=C(O)c1cc(C2CC2)ccc1Nc1cnc(-c2c(F)cccc2F)nc1 [salt from L-arginine]
Hygroscopicity / deliquescence of the salt [1]: hygroscopic
Solid form obtained [1]: crystalline

C[N+](C)(C)CCO.O=C([O-])c1cc(C2CC2)ccc1Nc1cnc(-c2c(F)cccc2F)nc1 [salt from choline]
Hygroscopicity / deliquescence of the salt [1]: hygroscopic
Solid form obtained [1]: crystalline

NCCCCC(N)C(=O)O.O=C(O)c1cc(C2CC2)ccc1Nc1cnc(-c2c(F)cccc2F)nc1 [salt from lysine]
Solid form obtained [1]: either oils or amorphous solids

CNCC(O)C(O)C(O)C(O)CO.O=C(O)c1cc(C2CC2)ccc1Nc1cnc(-c2c(F)cccc2F)nc1 [salt from meglumine]
Solid form obtained [1]: either oils or amorphous solids

O=C([O-])c1cc(C2CC2)ccc1Nc1cnc(-c2c(F)cccc2F)nc1.[K+] [salt from potassium methoxide]
Hygroscopicity / deliquescence of the salt [1]: hygroscopic
Solid form obtained [1]: crystalline
